Tests used:
Format in all cases: in vivo, human
Details in all cases: analyte = label; for peak plasma concentration: 100 mg racemic ketamine sublingual; for time of peak plasma concentration: post-administration of 100 mg racemic ketamine sublingual
[1] = Plasma ketamine, HNK and norketamine levels, gaming disorder subjects (Example 9)
Description: A study was completed on ketamine to treat gaming disorder. Subjects were assessed for gaming disorder using the Internet Gaming Disorder Scale (IGDS) and were included if they received an IGDS score greater than 3. Three subjects in total were included (IG1-IG3). All three were administered sublingual lozenges comprising 100 mg of racemic ketamine.
(§1) Blood samples were collected from all three subjects. Blood samples were analysed to determine ketamine and ketamine metabolite levels. Assessments were conducted as below.
The treatment protocol commenced in the same manner as disclosed in the ketamine in subjects with gambling disorder study completed in EXAMPLE 7, with the exceptions as follow: No behavioural tasks were completed. Self-report measures completed during EXAMPLE 9 included Social Phobia Inventory (SPIN), the Craving for Gaming Questionnaire (CGQ), and Generalised Anxiety Disorder-7 (GAD-7) the Sensitivity to Reward and Punishment Scale, and the Childhood Trauma Questionnaire, the Morningness-Eveningness Questionnaire (MEQ).

[2] = Plasma ketamine, HNK and norketamine levels, gambling disorder subjects (Example 7)
Description: A study was completed on the use of ketamine to treat gambling disorder. Subjects were assessed for gambling disorder using the PGSI. Subjects were included if they received a PGSI score greater than 3. Five subjects in total were included (G1-G5). All five subjects were administered ketamine. Blood samples were collected from all five subjects. Blood samples were analysed to determine ketamine and ketamine metabolite levels, and each subject was assessed post-administration to determine the effectiveness of the treatment.
On Day 3, each subject returned on-site and was administered ketamine. 100 mg of racemic ketamine was administered in as sublingual lozenges.
Blood samples were collected every 10 minutes, from 0 minutes (the time of administration) to 90 minutes post-administration. Blood samples at each time point were analysed to determine plasma levels of (2S,6S;2R,6R)-Hydroxynorketamine (HNK).

[3] = Plasma ketamine, HNK and norketamine levels, CSBD subjects (Example 10)
Description: A study was completed on the use of ketamine to treat CSBD. Subjects were assessed for CSBD using the Problematic Pornography Use Scale (PPUS) and were included if they received an PPUS score greater than 3. Three subjects in total were included (CSB1-CSB3). All three were administered sublingual lozenges comprising 100 mg of racemic ketamine.
as §1
The treatment protocol commenced in the same way as disclosed in the ketamine in subjects with gambling disorder study completed in EXAMPLE 7, with the exceptions outlined as follows: No behavioural tasks were completed. Self-report measures completed during EXAMPLE 10 included the Emotional Intimacy Measure, the Childhood Trauma Questionnaire, the Generalised Anxiety Disorder-7 (GAD-7), the Morningness-Eveningness Questionnaire (MEQ), and the Problematic Pornography Questionnaire (PPQ), the Acceptance and Action Questionnaire, and the Psychological and Interpersonal Relationship Scales (PAIRS).

[4] = Plasma ketamine, HNK and norketamine levels, binge eating disorder subjects (Example 8)
Description: A study was completed on the use of ketamine to treat binge eating disorder. Subjects were assessed for binge eating disorder using the Binge Eating Scale (BES), and included if they received a BES score greater than 15. Three subjects in total were included (BE1-BE3, and interchangeably on FIGS. 5 and 6 as BED1-BED3, these being the same subjects). All three were administered sublingual lozenges comprising 100 mg of racemic ketamine.
Blood samples were collected from all three subjects. Blood samples were analysed to determine ketamine and ketamine metabolite levels, as well as the hormones leptin and ghrelin. Self-report measures were conducted.
The treatment protocol commenced in substantially the same way as disclosed in the ketamine in subjects with gambling disorder study completed in EXAMPLE 7, with the exceptions outlined as follows: No behavioural tasks were completed. Blood samples collected every 10 minutes from the time of administration to 90 minutes post-administration were additionally analysed for leptin and ghrelin. Self-report measures included the Binge Eating Scale, the Adult Attachment Interview (AAI), a 20 question interview about the subject's recollections of their childhood (Sykes and Turner, 2015); the Childhood Trauma Questionnaire; the Morningness-Eveningness Questionnaire (MEQ), a 19-item questionnaire designed to assess when a respondent prefers to wake up or start sleep (American Thoracic Society, 2022); the DSM-5 Binge Eating Disorder diagnostic criteria; and the SPSRQ.

[5] = subject BE1 (no data at 30 minutes)

| SMILES | peak plasma concentration ([1]; subject IG1) | time of peak plasma concentration ([1]; subject IG1) | peak plasma concentration ([1]; subject IG2) | time of peak plasma concentration ([1]; subject IG2) | peak plasma concentration ([1]; subject IG3) | time of peak plasma concentration ([1]; subject IG3) | peak plasma concentration ([2]; subject G1) | time of peak plasma concentration ([2]; subject G1) | peak plasma concentration ([2]; subject G2) | time of peak plasma concentration ([2]; subject G2) | peak plasma concentration ([2]; subject G3) | time of peak plasma concentration ([2]; subject G3) | peak plasma concentration ([2]; subject G4) | time of peak plasma concentration ([2]; subject G4) | peak plasma concentration ([2]; subject G5) | time of peak plasma concentration ([2]; subject G5) | peak plasma concentration ([3]; subject CSB1) | time of peak plasma concentration ([3]; subject CSB1) | peak plasma concentration ([3]; subject CSB2) | time of peak plasma concentration ([3]; subject CSB2) | other results |
| --- | --- | --- | --- | --- | --- | --- | --- | --- | --- | --- | --- | --- | --- | --- | --- | --- | --- | --- | --- | --- | --- |
| NC1(c2ccccc2Cl)CCCCC1=O (racemic) [Norketamine, (R,S)-norketamine] | about 627 ng/ml | 70 min | about 1,040 ng/ml | 50 min | about 1,116 ng/mL | 60 min | about 592 ng/ml | 80 min | about 1,450 ng/ml | 70 min | about 574 ng/ml | 80 min | about 495 ng/ml | 90 min | about 1,079 ng/ml | about 90 minutes | about 1,069 ng/ml | 80 min | about 785 ng/ml | 70 min | peak plasma concentration ([3]; subject CSB3): about 923 ng/mL; time of peak plasma concentration ([3]; subject CSB3): 70 min; peak plasma concentration [4, 5]: about 81 ng/ml; time of peak plasma concentration [4, 5]: 90 min; peak plasma concentration ([4]; subject BE2): about 685 ng/ml; time of peak plasma concentration ([4]; subject BE2): 40 min; peak plasma concentration ([4]; subject BE3): about 975 ng/mL; time of peak plasma concentration ([4]; subject BE3): 60 min |
| CNC1(c2ccccc2Cl)CCCCC1=O (racemic) [ketamine, 2-(2-chlorophenyl)-2-(methylamino)-cyclohexanone] | about 390 ng/ml | 50 min | about 301 ng/ml | 50 min | about 670 ng/mL | 50 min | about 250 ng/ml | 30 min | about 405 ng/ml | 70 min | about 395 ng/ml | 80 min | about 291 ng/ml | 80 min | about 426 ng/ml | about 20 minutes | about 368 ng/ml | 70 min | about 285 ng/ml | 30 min | peak plasma concentration ([3]; subject CSB3): about 395 ng/mL; time of peak plasma concentration ([3]; subject CSB3): 50 min; peak plasma concentration [4, 5]: about 270 ng/ml; time of peak plasma concentration [4, 5]: 20 min; peak plasma concentration ([4]; subject BE2): about 339 ng/ml; time of peak plasma concentration ([4]; subject BE2): 20 min; peak plasma concentration ([4]; subject BE3): about 208 ng/mL; time of peak plasma concentration ([4]; subject BE3): 60 min |
| N[C@@]1(c2ccccc2Cl)CCC[C@@H](O)C1=O [HNK, (2S,6S;2R,6R)-hydroxynorketamine] | about 287 ng/ml | 90 min | about 279 ng/ml | 90 min | about 407 ng/mL | 60 min | about 300 ng/ml | 80 min | about 319 ng/ml | 70 min | about 175 ng/ml | 90 min | about 134 ng/ml | 90 min | about 615 ng/ml | about 60 minutes | about 136 ng/ml | 80 min | about 135 ng/ml | 90 min | peak plasma concentration ([3]; subject CSB3): about 314 ng/mL; time of peak plasma concentration ([3]; subject CSB3): 70 min; peak plasma concentration [4, 5]: about 53 ng/ml; time of peak plasma concentration [4, 5]: 90 min; peak plasma concentration ([4]; subject BE2): about 108 ng/ml; time of peak plasma concentration ([4]; subject BE2): 80 min; peak plasma concentration ([4]; subject BE3): about 244 ng/mL; time of peak plasma concentration ([4]; subject BE3): 90 min |

Reference: patent US20240197652A1, “KETAMINE IN THE TREATMENT OF […]” (Awakn LS Europe Holdings Limited, priority 2021, published 2024)
